The record followed here is patent US11066409B2, “Bicyclic nitrogen-containing heterocyclic derivatives and pharmaceutical composition comprising the same” (Shionogi & Co., Ltd., priority 2016, dated 2021).

In general, IC50 refers to the point on the concentration scale where inhibition reaches its midpoint. High values mean a need for much substance, low ones inhibition by little substance.

human P2X7 receptor, sequence (Q99572 whole entry R270H): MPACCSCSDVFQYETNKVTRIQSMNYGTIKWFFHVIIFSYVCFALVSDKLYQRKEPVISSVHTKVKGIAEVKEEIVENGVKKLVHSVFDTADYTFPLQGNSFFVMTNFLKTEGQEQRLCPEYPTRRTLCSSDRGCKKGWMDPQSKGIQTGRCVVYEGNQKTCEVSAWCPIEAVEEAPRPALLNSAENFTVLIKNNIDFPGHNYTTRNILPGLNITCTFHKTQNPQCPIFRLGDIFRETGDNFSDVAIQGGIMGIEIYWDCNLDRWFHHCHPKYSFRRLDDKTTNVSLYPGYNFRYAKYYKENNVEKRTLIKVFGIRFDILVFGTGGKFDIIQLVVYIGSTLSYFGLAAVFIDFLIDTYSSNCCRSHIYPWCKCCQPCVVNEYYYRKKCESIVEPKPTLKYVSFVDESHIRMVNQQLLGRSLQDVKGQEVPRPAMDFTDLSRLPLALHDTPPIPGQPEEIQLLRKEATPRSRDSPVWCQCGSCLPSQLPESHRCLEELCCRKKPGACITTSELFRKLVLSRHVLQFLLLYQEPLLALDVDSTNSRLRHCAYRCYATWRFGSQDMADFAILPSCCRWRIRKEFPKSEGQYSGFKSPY
human PXR, sequence (O75469 whole entry): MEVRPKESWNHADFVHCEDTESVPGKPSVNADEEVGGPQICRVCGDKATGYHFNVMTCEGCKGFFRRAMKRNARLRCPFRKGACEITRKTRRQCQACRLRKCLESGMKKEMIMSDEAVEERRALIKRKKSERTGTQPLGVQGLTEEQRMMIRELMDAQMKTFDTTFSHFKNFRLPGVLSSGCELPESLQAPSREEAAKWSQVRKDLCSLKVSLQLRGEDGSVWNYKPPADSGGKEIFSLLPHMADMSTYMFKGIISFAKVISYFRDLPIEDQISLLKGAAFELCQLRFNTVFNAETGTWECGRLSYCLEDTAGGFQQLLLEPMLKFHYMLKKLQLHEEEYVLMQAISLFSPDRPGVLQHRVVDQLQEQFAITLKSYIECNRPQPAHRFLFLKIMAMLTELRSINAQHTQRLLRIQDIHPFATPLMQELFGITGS

The first data set has as its target human P2X7 receptor (Homo sapiens (Human), UniProt Q99572, R270H). Nature of the data set: Evaluation of a human P2X7 receptor inhibitory activity (Yo-Pro uptake, BzATP stimulation, FLIPR TETRA). The format is cell-based. To be noted: 1321N1 cells stably expressing human P2X7 receptor, Yo-Pro fluorescence. An outline of the steps: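 1321N1 cells stably expressing human P2X7 (T606C/G952A SNP variant) in HBSS/HEPES pH 7.4–7.5 were loaded with Yo-Pro and stimulated with BzATP on FLIPR TETRA. Compound was added 8 min later and fluorescence followed for 20 min. Inhibition scaled between no-compound (0%) and reference compound (100%); IC50 by logistic fit, reported in bins A–D.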
In the case of `COc1nc(C)c(NC2=NC(=O)N(C)C3=NCC(c4cc(F)c(F)c(F)c4)N23)cc1F` (stereo not drawn) [Compound I-0162], the half-inhibitory concentration (IC50) was found to be 19 nM.
The same measure, in the same setting: next, `CCc1ccc(CO)cc1NC1=NC(=O)N(C)C2=NCC(c3cc(F)c(F)c(F)c3)N12` (stereo not drawn) [Compound I-0176]: 20 nM.
The same measure, in the same setting: for `CN1C(=O)N=C(NCc2ccccc2)N2C1=NCC2c1cc(F)c(F)c(F)c1` (stereo not drawn) [Compound I-0188] the value was 7.6 nM.

The same data set, now with this note: 1321N1 cells stably expressing human P2X7 receptor, Yo-Pro fluorescence, class symbols.
Take `COc1ccc(C)c(NC2=NC(=O)N(C)C3=NCC(c4cc(F)c(F)c(F)c4)N23)c1` (stereo not drawn) [Compound I-0142]: the IC50 was 10 to 100 nM.
Still for that read-out and setting: for `COc1cc(NC2=NC(=O)N(C)C3=NCC(c4cc(F)c(F)c(F)c4)N23)c(C)nc1OC` (stereo not drawn) [Compound I-0167] the value was 100 to 500 nM; for `COCCOc1ccc(C)c(NC2=NC(=O)N(C)C3=NCC(Cc4ccccc4)N23)c1` (stereo not drawn) [Compound I-0169], 10 to 100 nM; for `COc1cc(C)c(Nc2nc(=O)n(C)c3ncn(Cc4ccccc4)c23)cc1OC` [Compound I-0170], 10 to 100 nM.
`Cc1cc(F)c(OCCO)cc1NC1=NC(=O)N(C)C2=NCC(c3cc(F)c(F)c(F)c3)N12` (stereo not drawn) [Compound I-0172] returned an IC50 of 10 to 100 nM.
`COc1ccc(C)c(Nc2nc(=O)n(C)c3ncn(Cc4ccccc4)c23)c1` [Compound I-0173] returned an IC50 of 500 to 1000 nM.
In turn, `COc1ccc(Nc2nc(=O)n(C)c3ncn(Cc4ccccc4)c23)c(C)c1` [Compound I-0174] showed an IC50 of 100 to 500 nM.
`Cc1ncc(CO)cc1NC1=NC(=O)N(C)C2=NCC(c3cc(F)c(F)c(F)c3)N12` (stereo not drawn) [Compound I-0175]: the IC50 lay in the range of 10 to 100 nM.
The same measure, in the same setting: for `Cc1ccc(C)c(NC2=NC(=O)N(C)C3=NCC(Cc4ccccc4)N23)c1` (stereo not drawn) [Compound I-0177] the value was 100 to 500 nM.
Still for that read-out and setting: for `Cc1ccc(CO)cc1NC1=NC(=O)NC2=NCC(c3cc(F)c(F)c(F)c3)N21` (stereo not drawn) [Compound I-0178] the value was 10 to 100 nM; for `Cc1ccc(CO)cc1NC1=NC(=O)N(C)C2=NCC(Cc3ccccc3)N12` (stereo not drawn) [Compound I-0179], 100 to 500 nM; for `CCc1ccc(CO)cc1NC1=NC(=O)NC2=NCC(c3cc(F)c(F)c(F)c3)N21` (stereo not drawn) [Compound I-0180], 10 to 100 nM.
The same measure, in the same setting: next, `Cc1ccc(CCCO)cc1NC1=NC(=O)N(C)C2=NCC(c3cc(F)c(F)c(F)c3)N12` (stereo not drawn) [Compound I-0181]: 10 to 100 nM; `COc1nc(C)c(NC2=NC(=O)N(C)C3=NCC(c4cc(F)c(F)c(F)c4)N23)cc1CO` (stereo not drawn) [Compound I-0182]: 10 to 100 nM; `CCc1ccc(CO)cc1NC1=NC(=O)N(C)C2=NCC(Cc3ccccc3)N12` (stereo not drawn) [Compound I-0183]: 100 to 500 nM.
`Cc1ccc(CC(F)(F)CO)cc1NC1=NC(=O)N(C)C2=NCC(c3cc(F)c(F)c(F)c3)N12` (stereo not drawn) [Compound I-0184]: the IC50 was 10 to 100 nM.
On the same count and under the same terms, next, `Cc1ccc(O[C@H]2C[C@@H](CO)C2)cc1NC1=NC(=O)N(C)C2=NCC(c3cc(F)c(F)c(F)c3)N12` (stereo partly drawn) [Compound I-0185]: 10 to 100 nM; `Cc1ccc(O[C@H]2C[C@H](CO)C2)cc1NC1=NC(=O)N(C)C2=NCC(c3cc(F)c(F)c(F)c3)N12` (stereo partly drawn) [Compound I-0186]: 10 to 100 nM; `Cc1cc2cnn(CCO)c2cc1NC1=NC(=O)N(C)C2=NCC(c3cc(F)c(F)c(F)c3)N12` (stereo not drawn) [Compound I-0187]: 10 to 100 nM.
Molecule `Cc1ccc(C#N)cc1NC1=NC(=O)N(CCO)C2=NCC(c3cc(F)c(F)c(F)c3)N12` (stereo not drawn) [Compound I-0189] gave an IC50 of 10 to 100 nM.
Molecule `Cc1ccc(OC[C@H]2C[C@H](O)C2)cc1NC1=NC(=O)N(C)C2=NCC(c3cc(F)c(F)c(F)c3)N12` (stereo partly drawn) [Compound I-0190] registered an IC50 of 10 to 100 nM.
As for `Cc1ccc(C=O)cc1NC1=NC(=O)N(C)C2=NCC(c3cc(F)c(F)c(F)c3)N12` (stereo not drawn) [Compound I-0191], the IC50 was 10 to 100 nM.
Still for that read-out and setting: for `Cc1ccc(Oc2ccccn2)cc1NC1=NC(=O)N(C)C2=NCC(c3cc(F)c(F)c(F)c3)N12` (stereo not drawn) [Compound I-0193] the value was 10 to 100 nM; for `Cc1ccc(CCO)cc1NC1=NC(=O)N(C)C2=NCC(c3cc(F)c(F)c(F)c3)N12` (stereo not drawn) [Compound I-0194], 10 to 100 nM.
In the case of `Cc1ccc(CO)cc1NC1=NC(=O)N(C)C2=NCC(c3cc(F)nc(F)c3)N12` (stereo not drawn) [Compound I-0195], the IC50 lay in the range of 10 to 100 nM.
Consider `CN1C(=O)N=C(NCc2ccccc2F)N2C1=NCC2c1cc(F)c(F)c(F)c1` (stereo not drawn) [Compound I-0196], for which the IC50 lay in the range of 10 to 100 nM.
Same read-out and setting: for `CN1C(=O)N=C(NCc2cccc(F)c2)N2C1=NCC2c1cc(F)c(F)c(F)c1` (stereo not drawn) [Compound I-0197] the value was 10 to 100 nM; for `CN1C(=O)N=C(NCc2ccc(F)cc2)N2C1=NCC2c1cc(F)c(F)c(F)c1` (stereo not drawn) [Compound I-0198], 10 to 100 nM.
Still for that read-out and setting: for `Cc1ccc(OCCS(C)(=O)=O)cc1NC1=NC(=O)N(C)C2=NCC(c3cc(F)c(F)c(F)c3)N12` (stereo not drawn) [Compound I-0199] the value was 10 to 100 nM.
`Cc1ccc(OCC#N)cc1NC1=NC(=O)N(C)C2=NCC(c3cc(F)c(F)c(F)c3)N12` (stereo not drawn) [Compound I-0200] had an IC50 of 10 to 100 nM.
The same measure, in the same setting: for `COCCc1ccc(C)c(NC2=NC(=O)N(C)C3=NCC(c4cc(F)c(F)c(F)c4)N23)c1` (stereo not drawn) [Compound I-0202] the value was 10 to 100 nM; for `COCC(F)(F)Oc1ccc(C)c(NC2=NC(=O)N(C)C3=NCC(c4cc(F)c(F)c(F)c4)N23)c1` (stereo not drawn) [Compound I-0203], 10 to 100 nM; for `Cc1ccc(OC(F)(F)CO)cc1NC1=NC(=O)N(C)C2=NCC(c3cc(F)c(F)c(F)c3)N12` (stereo not drawn) [Compound I-0204], 10 to 100 nM.
Same read-out and setting: for `COCC(F)(F)c1ccc(C)c(NC2=NC(=O)N(C)C3=NCC(c4cc(F)c(F)c(F)c4)N23)c1` (stereo not drawn) [Compound I-0205] the value was 10 to 100 nM.
With `Cc1ccc(C(F)(F)CO)cc1NC1=NC(=O)N(C)C2=NCC(c3cc(F)c(F)c(F)c3)N12` (stereo not drawn) [Compound I-0206], the IC50 fell in the range of 10 to 100 nM.
Molecule `COc1ccc([C@@H](C)NC2=NC(=O)N(C)C3=NCC(c4cc(F)c(F)c(F)c4)N23)cc1` (stereo partly drawn) [Compound I-0207] registered an IC50 of 100 to 500 nM.
As for `Cc1cc(C#N)ccc1NC1=NC(=O)N(C)C2=NCC(c3cc(F)c(F)c(F)c3)N12` (stereo not drawn) [Compound I-0208], the IC50 fell in the range of 10 to 100 nM.
Molecule `COc1cc(NC2=NC(=O)N(C)C3=NCC(c4cc(F)c(F)c(F)c4)N23)c(C)cc1C#N` (stereo not drawn) [Compound I-0209] registered an IC50 of 10 to 100 nM.
For the molecule `CN1C(=O)N=C(Nc2cc(C#N)ccc2F)N2C1=NCC2c1cc(F)c(F)c(F)c1` (stereo not drawn) [Compound I-0210], the IC50 lay in the range of 10 to 100 nM.
For the molecule `Cc1cc(F)c(C#N)cc1NC1=NC(=O)N(C)C2=NCC(c3cc(F)c(F)c(F)c3)N12` (stereo not drawn) [Compound I-0211], the IC50 was 10 to 100 nM.
On the same count and under the same terms, for `Cc1c(F)cc(C#N)cc1NC1=NC(=O)N(C)C2=NCC(c3cc(F)c(F)c(F)c3)N12` (stereo not drawn) [Compound I-0212] the value was 10 to 100 nM; for `Cc1ccc(C2=NCCO2)cc1NC1=NC(=O)N(C)C2=NCC(c3cc(F)c(F)c(F)c3)N12` (stereo not drawn) [Compound I-0213], 10 to 100 nM; for `Cc1cc(F)c(C2=NCCO2)cc1NC1=NC(=O)N(C)C2=NCC(c3cc(F)c(F)c(F)c3)N12` (stereo not drawn) [Compound I-0214], 10 to 100 nM.

The target in the next data set is human PXR (Homo sapiens (Human), UniProt O75469). Nature of the data set: Evaluation of activation of human pregnane X receptor (PXR), DPX2 cells. It is filed as cell-based. The note with it: compound 10 μM, 48 hours, emission intensity divided by fluorescence intensity. The procedure:
A Human PXR activation (Puracyp, Inc.) kit was used for evaluation.
DPX2 cells expressing human PXR were seeded in a 96-well plate at a concentration of 40000 cells/well and cultured at 37° C. under 5% carbon dioxide for 24 hours (medium: culture medium for DPX2 cells containing 10% fetal bovine serum, antibiotics, sodium pyruvate, D-glucose, and phenol red). After culture for 24 hours, a DMSO solution of the compound of the present invention was diluted with a medium (dosing medium for DPX2 cells containing 10% fetal bovine serum, D-glucose, antibiotics, sodium pyruvate, and L-glutamine) so that the final concentration was 10 and 50 μM, and a rifampicin DMSO solution as a positive control drug was 0.2, 1, 2, and 20 μM. The medium was removed from the 96-well plate after culture for 24 hours. 100 μL of the solution of the compound of the present invention and 100 μL of the rifampicin solution prepared were added to each well, and cultured for 48 hours. The medium was removed from the 96-well plate after culture for 48 hours. 100 μL of each reaction mixture obtained by adding 5.25 μL of CellTiter-Fluor to 10.5 mL of TubeE was filled therein. The plate was set in a plate reader (PerkinElmer, Inc.) after culture for 1 hour to measure the fluorescence intensity at an interval of 0.1 seconds per well. The plate was taken out. 100 μL of a solution obtained by adding ONE-Glo Assay Substrate to ONE-Glo Assaybuffer was added to each well. After 2 minutes from the addition of the solution, the plate was set in the plate reader to measure the […] at an interval of 2 seconds per well. The PXR activity of the product of the present invention was a value obtained by dividing the emission intensity by the fluorescence intensity.
`COc1ccc(C)c(NC2=NC(=O)N(C)C3=NCC(c4cc(F)c(F)c(F)c4)N23)c1` (stereo not drawn) [Compound I-0142]: the “PXR 10 μM” value worked out at 5.8.
`COc1nc(C)c(NC2=NC(=O)N(C)C3=NCC(c4cc(F)c(F)c(F)c4)N23)cc1F` (stereo not drawn) [Compound I-0162]: the “PXR 10 μM” value was 6.7.
The same measure, in the same setting: for `CCc1ccc(CO)cc1NC1=NC(=O)N(C)C2=NCC(c3cc(F)c(F)c(F)c3)N12` (stereo not drawn) [Compound I-0176] the value was 1.1; for `CN1C(=O)N=C(NCc2ccccc2)N2C1=NCC2c1cc(F)c(F)c(F)c1` (stereo not drawn) [Compound I-0188], 1.3.

The same data set, now with this note: compound 50 μM, 48 hours, emission intensity divided by fluorescence intensity.
In the case of `COc1ccc(C)c(NC2=NC(=O)N(C)C3=NCC(c4cc(F)c(F)c(F)c4)N23)c1` (stereo not drawn) [Compound I-0142], the “PXR 50 μM” value is 13.
In the case of `COc1nc(C)c(NC2=NC(=O)N(C)C3=NCC(c4cc(F)c(F)c(F)c4)N23)cc1F` (stereo not drawn) [Compound I-0162], the “PXR 50 μM” value stood at 20.
On the same count and under the same terms, for `CCc1ccc(CO)cc1NC1=NC(=O)N(C)C2=NCC(c3cc(F)c(F)c(F)c3)N12` (stereo not drawn) [Compound I-0176] the value was 2; for `CN1C(=O)N=C(NCc2ccccc2)N2C1=NCC2c1cc(F)c(F)c(F)c1` (stereo not drawn) [Compound I-0188], 3.5.
